Numbers after ± are expanded uncertainties.
What was measured:
[1] = DTA
[2] = Molar enthalpy of transition or fusion; conditions: DSC

| Triple point temperature ([1]; Crystal) [K] | Triple point temperature ([1]; Nematic liquid crystal) [K] | Molar enthalpy of transition or fusion ([2]; Crystal) [kcal/mol] | Molar enthalpy of transition or fusion ([2]; Nematic liquid crystal) [kcal/mol] | Structure (SMILES) |
| --- | --- | --- | --- | --- |
| 297.55 ± 0.5 | 308.65 ± 0.5 | 3.26 ± 0.108 | 0.117 ± 0.0359 | CCCCCc1ccc(-c2ccc(C#N)cc2)cc1 [4'-n-pentyl-4-biphenylcarbonitrile] |
| 305.15 ± 0.5 | 316.15 ± 0.5 | 5.82 ± 0.172 | 0.198 ± 0.0382 | CCCCCCCc1ccc(-c2ccc(C#N)cc2)cc1 [4'-heptyl-4-biphenylcarbonitrile] |

Source: the NIST ThermoML archive (doi:10.1016/j.jct.2014.08.010)
